# Like-named read-outs stand apart in the source and are kept apart here.
# How the values were obtained:
# C. acnes ATCC 6919 [1] = test: Crystal violet biofilm formation assay, C. acnes ATCC 6919; assay type: cell-based, Cutibacterium acnes; conditions: for inhibition at 20 µg/mL / inhibition at 1 µg/mL: Cutibacterium acnes, ATCC6919, 96 h; for inhibition at 20 µg/mL / change in biofilm formation: 20 μg/ml; for inhibition at 20 µg/mL: 96 h culture in RCM, 96-well plate; for change in biofilm formation: 96 h culture; for inhibition at 1 µg/mL: 1 μg/ml, 96 h, 96-well polystyrene plate, read-out: inhibitory effect on biofilm formation
# Description: 3. Crystal Violet Film Assay
# Crystal violet assay was performed by the previously reported method (Lee et al., 2017b) to quantify biofilm formation.
# To quantify the biofilm, planktonic growth was eliminated, the plate was washed three times with distilled water, and the biofilm attached to the well was stained with 0.1% crystal violet for 20 minutes. Thereafter, the plate was washed three times with sterile distilled water, and crystal violet was extracted using 95% ethanol, absorbance was measured at 570 nm using Multiskan EX microplate reader (Thermo Fisher Scientific, Waltham, MA), and the result was shown as an average value of at least 12 replicate wells.
# Percentage for inhibition rate represents relative biofilm formation (100×biofilm formation with chemical/biofilm formation of untreated control).
# C. acnes ATCC 6919 [2] = test: Hydrophobicity analysis: microbial adherence to hydrocarbon (MATH); assay type: cell-based, Cutibacterium acnes; conditions: for change of cell hydrophobicity: 10 and 20 μg/ml fatty acids, 96 h
# Description: MATH analysis (Rosenberg et al., 1980) was performed to identify the effect of fatty acids on the attachability of C. acnes to hydrocarbons (toluene) and the cell surface hydrophobicity of C. acnes.
# C. acnes were grown without fatty acids for 96 hours under anaerobic conditions at 37° C.
# The OD values of all treated and untreated cultures were adjusted to OD 0.5±0.05, and an equal volume of toluene was added to 3 ml of the cell suspension, followed by stirring for 60 seconds.
# After stirring, incubation of an aqueous solution was performed overnight at room temperature to completely remove the trace solvent. OD600 in the aqueous solution was observed and cell surface hydrophobicity (CSH) was evaluated by hydrophobicity index (HI) using the following formula. (HI=[1−(OD600 after vortexing/OD600 before vortexing)]×100) (Mattos-Guaraldi et al., 1999). 8. Identification of Anti-Viral Effect and Cytotoxicity of Myristoleic Acid in Nematode Model
# C. acnes ATCC 6919 [3] = test: Quantification of extracellular polymeric substance (EPS); assay type: cell-based, Cutibacterium acnes; conditions: 10 μg/ml, 96 h culture
# Description: 6. Quantification of Extracellular Polymeric Substance (EPS)
# For EPS quantification, C. acnes treated with control and myristoleic acid was cultured at 37° C. for 96 hours. After culture, the culture was centrifuged at 8,228×g for 10 minutes, and the supernatant was separated.
# The cell pellet was washed with sterile PBS to remove the culture supernatant which is free of residual cells. 15 ml of an isotonic solution (10 mM Tris/HCl, pH 8.0, 10 mM EDTA, 2.5% NaCl) was added to the cell pellet, and the mixed wells were culture at 4° C. overnight.
# After overnight culture, the cell suspension was shaken to be mixed for 5 minutes, followed by centrifugation at 8,228×g for 10 minutes. The supernatant containing EPS bound with the cells was separated from the cells. Cold ethanol was added to the supernatant in a ratio of 1:3 and left at −20° C. overnight.
# After collecting the precipitated EPS by centrifugation at 4° C., 18,514×g for 30 minutes, the pellet was washed with 70% ethanol and dried. The dried EPS was weighed, and inhibition of EPS production by fatty acids was calculated by the following formula (Sivasankar et al., 2016). ([Control wt−Treated wt/Control wt]×100) 7. Hydrophobicity Analysis: Microbial Adherence to Hydrocarbon (MATH)
# C. acnes ATCC 6919 [4] = test: Planktonic cell growth and MIC identification; assay type: cell-based, Cutibacterium acnes; conditions: for MIC: after 96 hours of culture
# Description: 2. Measurement of Planktonic Cell Growth and MIC Identification In order to identify the effect of fatty acids on the planktonic growth of C. acnes, a culture cultured for 96 hours in a 96-well plate was re-transplanted after undergoing dilution in a ratio of 1:50 and then treated with fatty acids of different concentrations. Plates were cultured under anaerobic condition at 37° C. and maintained using an anaerobic pouch (Fisher Scientific, Pittsburgh, USA). After 96 hours of culture, cell turbidity was checked at 600 nm using Optizen 2120UV spectrophotometer ([…] Co. Ltd., Daejeon, Korea).
# S. aureus ATCC 6538 = test: Biofilm formation of S. aureus ATCC 6538; assay type: cell-based, Staphylococcus aureus
# Source text: (§1) The antibacterial and anti-biofilm activity of myristoleic acid against five Staphylococcus aureus strains was identified, including two methicillin-sensitive S. aureus strains (MSSA; ATCC 25923 and ATCC 6538), two methicillin-resistant S. aureus strains (MRSA, MW2, and ATCC 33591), and S. epidermidis strains.
# C. acnes ATCC 6919 [5] = test: Rapid killing (time-kill) experiment; assay type: cell-based, Cutibacterium acnes; conditions: 100 μg/ml
# Description: 4. Analysis of Rapid Killing of Acne Bacteria Using Fatty Acids To determine the killing time by fatty acids, a time-kill experiment was performed. Briefly, cultures of C. acnes ATCC 6919 grown in RCM broth (BD Difco™, Fisher Scientific, Pittsburgh, USA) at 37° C. under anaerobic conditions for 96 hours were diluted in a ratio of 1:50 with fresh RCM medium. The samples were treated with myristoleic acid (50 and 100 μg/ml) or lauric acid (50 and 100 μg/ml) and cultured at 37° C. under anaerobic conditions while stirring. At each time point, aliquots of treated cells were collected, and after performing appropriate dilutions, cells were smeared on RCM agar plates and incubated at 37° C. for 96 hours, followed by enumeration of CFUs, wherein each experiment was repeated.
# C. acnes [6] = conditions: after 72 hours, previous report; cited from earlier work
# [7] = system: S. aureus ATCC 6538, S. aureus ATCC 25923, MRSA MW2, MRSA ATCC 33591, S. epidermidis ATCC 14990; test: Biofilm formation of five Staphylococcus strains; assay type: cell-based, Staphylococcus aureus, Staphylococcus epidermidis
# Source text: as §1
# [8] = system: C. elegans infected with C. acnes ATCC 6919; test: C. elegans killing assay with C. acnes infection; assay type: in vivo; conditions: 10 μg/ml, 4 days; 20% survived without treatment
# Description: C. elegans killing assay was performed with a slight modification of the previously reported method (Beceiro et al., 2014). Briefly, assays were performed in 96-well plates.
# Young adult nematodes (20-30) [fer-15(b26);fem-1(hc17)] were transferred to each well contained in an M9 solution. The untreated control and fatty acid-treated C. acnes cells were each added to separate wells containing 20 to 30 nematodes and incubated at 25° C.
# Nematodes solely exposed to E. coli OP50 at CFU of 1×10^6 cells/ml were used as a control.
# Viability was identified by exposing to LED or UV LED light for 10 to 30 seconds using the iRiS™ Digital Cell Imaging System (Logos BioSystems, South Korea) by the previously reported method (Rajasekharan et al., 2018). The experiments were repeated three times.
# C. acnes [9] = test: Scanning electron microscopy of biofilm / EPS; assay type: cell-based, Cutibacterium acnes; conditions: 10 μg/ml
# Description: 5. Scanning Electron Microscopy
# Production of extracellular polymeric substance (EPS) was detected by electron microscopy (SEM) by the previously reported method (Lee et al., 2011).
# Briefly, C. acnes cells were inoculated in 96-well plates under conditions with or without fatty acids, and a nylon filter (0.4×0.4 mm square) was added to each well. Biofilms were grown on the nylon filters by culturing together for 96 hours without stirring under anaerobic conditions at 37° C.
# Then, the biofilm cells on the piece of nylon filter were immobilized with 2.5% glutaraldehyde and 2% formaldehyde for 24 hours and sequentially immobilized with osmium tetroxide, followed by dehydration with ethanol series (50, 70, 80, 90, 95 and 100%) and isoamyl acetate.
# After critical point drying, the cells on the filter were stopper-coated with to palladium/gold, and observed under an S-4100 scanning electron microscope (Hitachi, Tokyo, Japan) at a magnification of ×1000 to ×10,000 using an acceleration voltage of 15 kV.
# uninfected C. elegans = test: Chemical toxicity in uninfected C. elegans; assay type: in vivo; conditions: increased to 500 μg/ml for 5 days, uninfected nematodes
# Description: The toxicity of myristoleic acid was identified in […].
# […] was treated with myristoleic acid with various doses, and survival was checked every day for 5 consecutive days.
# In addition, in order to identify the chemical toxicity of myristoleic acid, uninfected nematodes were exposed to different concentrations of myristoleic acid.
# Staphylococcus strains = test: MIC against Staphylococcus strains; assay type: cell-based, Staphylococcus aureus
# Source text: as §1
# [10] = Cutibacterium acnes, ATCC6919, 96 h, read-out: MIC
Compound,inhibition at 20 µg/mL (C. acnes ATCC 6919 [1]),change of cell hydrophobicity (C. acnes ATCC 6919 [2]),EPS production (C. acnes ATCC 6919 [3]),other results
CCCCC/C=C\C/C=C\C/C=C\C/C=C\CCCC(=O)O [arachidonic acid],> 60%,,,
"CCCCCC/C=C\CCCCCCCC(=O)O [cis-9-hexadecenoic acid, cis-9 hexadecenoic acid]",,a little change in hydrophobicity,no significant changes,change in biofilm formation (C. acnes ATCC 6919 [1]): very subtle changes in biofilm formation
CCCCCCCCCC(=O)O [decanoic acid],> 60%,,no significant changes,MIC (C. acnes ATCC 6919 [4]; [10]): 20 to 200 µg/mL
CCCCCCCC/C=C\CCCCCCCCCCCC(=O)O [erucic acid],> 60%,,,
CCCCCCCCCCCCCCCCC(=O)O [heptadecanoic acid],> 60%,a little change in hydrophobicity,,
CCCCCCC(=O)O [heptanoic acid],,,no significant changes,change in biofilm formation (C. acnes ATCC 6919 [1]): very subtle changes in biofilm formation
"CCCCCCCCCCCC(=O)O [lauric acid, reference compound]",,reduced cell hydrophobicity the most,significant reduction in EPS production,anti-biofilm activity (S. aureus ATCC 6538): weak anti-biofilm activity; killing of C. acnes cells (C. acnes ATCC 6919 [5]): did not effectively kill; MIC (C. acnes [6]): 60 µg/mL; inhibition at 1 µg/mL (C. acnes ATCC 6919 [1]): ≥ 80%
CCCCC/C=C\C/C=C\CCCCCCCC(=O)O [linoleic acid],> 60%,reduced cell hydrophobicity the most,,
CC/C=C\C/C=C\C/C=C\CCCCCCCC(=O)O [linolenic acid],> 60%,,,
CCCCCCCCCCCCCC(=O)O [myristic acid],> 60%,,,
CCCC/C=C\CCCCCCCC(=O)O [myristoleic acid],,reduced cell hydrophobicity the most,significant reduction in EPS production,"anti-biofilm activity ([7]; 5 Staphylococcus strains): strong anti-biofilm activity; inhibition at 50 µg/mL ([7]; ALL5, 50 μg/ml, all 5 strains, read-out: biofilm formation inhibitory effect): > 90%; C. acnes cells killed (C. acnes ATCC 6919 [5]; in 1 hour): ≥ 99.999%; survival of C. elegans infected with C. acnes [8]: 70%; EPS production by SEM analysis (C. acnes [9]): reduction in EPS production; hydrophobicity index (cells made hydrophilic) (C. acnes ATCC 6919 [2]; 10 μg/ml): > 20%; dose-dependent effect on hydrophobicity (C. acnes ATCC 6919 [2]; 5, 10, 15, or 20 μg/ml): clear-cut decrease in hydrophobicity in a dose-dependent manner; MIC of myristoleic acid relative to lauric acid (times lower) (C. acnes ATCC 6919 [4]; 20 μg/ml vs 100 μg/ml): 5 times; MIC (C. acnes ATCC 6919 [4]; [10]): 20 to 200 µg/mL; MIC (C. acnes ATCC 6919 [4]): 20 µg/mL; planktonic cell growth (C. acnes ATCC 6919 [4]; increased to 10 μg/ml): did not reduce planktonic cell growth; toxicity to C. elegans (uninfected C. elegans): did not show toxicity; C. acnes biofilm formation (C. acnes ATCC 6919 [1]; <10 μg/ml): significantly inhibited; inhibition at 1 µg/mL (C. acnes ATCC 6919 [1]): ≥ 80%; MIC (Staphylococcus strains): 150 µg/mL"
CCCCCCCCC(=O)O [nonanoic acid],> 60%,,,
CCCCCCCC/C=C\CCCCCCCC(=O)O [oleic acid],> 60%,,,
CCCCCCCCCCCCCCCC(=O)O [palmitic acid],> 60%,,,
CCCCCCCCCCCCCCCCCC(=O)O [stearic acid],> 60%,a little change in hydrophobicity,no significant changes,
"CCCCCCCCCCCCCCCCCCCCCCC(=O)O [trichoic acid, tricosanoic acid]",> 60%,a little change in hydrophobicity,no significant changes,
CCCCCCCCCCC(=O)O [undecanoic acid],> 60%,,significant reduction in EPS production,MIC (C. acnes ATCC 6919 [4]; [10]): 20 to 200 µg/mL
"CCCCC(=O)O [valeric acid, pentanoic acid]",,,,change in biofilm formation (C. acnes ATCC 6919 [1]): very subtle changes in biofilm formation

# Reference: US12576057B2, “Antibacterial and biofilm formation-inhibiting composition containing myristoleic acid as active ingredient” (RESEARCH COOPERATION FOUNDATION OF YEUNGNAM UNIVERSITY, priority 2020, dated 2026)
